# Test results reported in patent US6352714B1, “Method of producing a metal nutrient for an animal feed” (DER, Inc., priority 2000, dated 2002).
# Test system: nursery pigs
# Assay: Chromium supplementation feeding study in nursery pigs (growth performance)
# Format: in vivo
# Conditions: diet with 400 ppb chromium
# From the text: A study was made to determine the effects of chromium leather hydrolysate supplementation in nursery pigs, as compared with other complexes, namely chromium picolinate and a yeast chromium complex. In this study, three groups of forty pigs each, with a mean weaning age of 17.6 days, were fed diets containing the chromium leather hydrolysate proteinate, chromium tripicolinate, or yeast chromium complex. In addition, a control group of forty pigs were not fed a supplement. In all cases, the chromium containing complex contained 400 ppb of chromium. Data relating to the average daily gains were obtained over three phases with Phase I being 0-7 days, Phase II being 8-14 days, and Phase III being 15-21 days.
# In the above Table, ADG is “average daily gain” and ADFI is “average daily feed intake”.
substance,measurement,setting,value
chromium tripicolinate [Chromium picolinate],ADFI (average daily feed intake),"Phase I, 0-7 days",545 gms
same,ADG (average daily gain),"Phase I, 0-7 days",250 gms
same,Gain/Feed,"Phase I, 0-7 days",0.54
same,ADFI (average daily feed intake),"Phase II, 8-14 days",1.43 kg
same,ADG (average daily gain),"Phase II, 8-14 days",0.92 kg
same,Gain/Feed,"Phase II, 8-14 days",0.67
same,ADFI (average daily feed intake),"Phase III, 15-21 days",2.61
same,ADG (average daily gain),"Phase III, 15-21 days",1.26 kg
same,Gain/Feed,"Phase III, 15-21 days",0.48
